According to ChEMBL document CHEMBL5614385, “A peptide-salinomycin conjugate with a bystander effect reduces the stemness characteristics of ovarian cancer cells and enhances drug sensitivity” (Eur J Med Chem, 2024):
The source made the active and inactive calls. The rule behind the calls is not given here.

Key:
A-431 = assay: Cytotoxicity against human A-431 cells assessed as inhibition of cell growth incubated for 72 hrs by CCK8 assay; assay type: functional, cell-based; conditions: A-431, 72 h
SK-OV-3 [1] = assay: Inhibition of cell migration in human SK-OV-3 cells at 5 uM incubated for 24 hrs by microscope based wound healing assay; assay type: functional
HeLa = assay: Cytotoxicity against human HeLa cells assessed as inhibition of cell growth incubated for 72 hrs by CCK8 assay; assay type: functional, cell-based
CAL-27 = assay: Cytotoxicity against human CAL-27 cells assessed as inhibition of cell growth incubated for 72 hrs by CCK8 assay; assay type: functional, cell-based; conditions: CAL-27, 72 h
SK-OV-3 [2] = assay: Antitumor activity against CD44 positive human SK-OV-3 cells assessed as reduction in cell viability incubated for 72 hrs by CCK8 assay; assay type: functional, cell-based; conditions: SK-OV-3, 72 h
MKN-45 = assay: Cytotoxicity against human MKN-45 cells assessed as inhibition of cell growth incubated for 72 hrs by CCK8 assay; assay type: functional, cell-based; conditions: MKN-45, 72 h
MDA-MB-231 = assay: Cytotoxicity against human MDA-MB-231 cells assessed as inhibition of cell growth incubated for 72 hrs by CCK8 assay; assay type: functional, cell-based; conditions: MDA-MB-231, 72 h
SK-OV-3 [3] = assay: Inhibition of cell invasion in human SK-OV-3 cells incubated for 24 hrs by crystal violet staining based transwell invasion assay; assay type: functional; conditions: dose 5.0 µM
SK-OV-3/CDDP = assay: Cytotoxicity against human SK-OV-3/CDDP cells assessed as inhibition of cell proliferation incubated for 72 hrs by CCK8 assay; assay type: functional, cell-based
DU-145 = assay: Cytotoxicity against human DU-145 cells assessed as inhibition of cell growth incubated for 72 hrs by CCK8 assay; assay type: functional, cell-based; conditions: DU-145, 72 h
SK-OV-3 [4] = assay: Inhibition of AKT phosphorylation in human SK-OV-3 cells at 5 uM incubated for 24 hrs by Western blot analysis; assay type: cell-based
A549 = assay: Cytotoxicity against human A549 cells assessed as inhibition of cell growth incubated for 72 hrs by CCK8 assay; assay type: functional, cell-based; conditions: A549, 72 h
HCCLM3 = assay: Cytotoxicity against human HCCLM3 cells assessed as inhibition of cell growth incubated for 72 hrs by CCK8 assay; assay type: functional, cell-based; conditions: HCCLM3, 72 h
A2780 = assay: Antitumor activity against CD44 negative human A2780 cells assessed as reduction in cell viability incubated for 72 hrs by CCK8 assay; assay type: functional, cell-based; conditions: A2780, 72 h
[5] = target: Vascular endothelial growth factor receptor 2 (Homo sapiens) (UniProt P35968); assay: Inhibition of VEGFR2 phosphorylation in human SK-OV-3 cells at 5 uM incubated for 24 hrs by Western blot analysis; assay type: cell-based
Sequence of Vascular endothelial growth factor receptor 2 (Homo sapiens) (P35968 whole entry): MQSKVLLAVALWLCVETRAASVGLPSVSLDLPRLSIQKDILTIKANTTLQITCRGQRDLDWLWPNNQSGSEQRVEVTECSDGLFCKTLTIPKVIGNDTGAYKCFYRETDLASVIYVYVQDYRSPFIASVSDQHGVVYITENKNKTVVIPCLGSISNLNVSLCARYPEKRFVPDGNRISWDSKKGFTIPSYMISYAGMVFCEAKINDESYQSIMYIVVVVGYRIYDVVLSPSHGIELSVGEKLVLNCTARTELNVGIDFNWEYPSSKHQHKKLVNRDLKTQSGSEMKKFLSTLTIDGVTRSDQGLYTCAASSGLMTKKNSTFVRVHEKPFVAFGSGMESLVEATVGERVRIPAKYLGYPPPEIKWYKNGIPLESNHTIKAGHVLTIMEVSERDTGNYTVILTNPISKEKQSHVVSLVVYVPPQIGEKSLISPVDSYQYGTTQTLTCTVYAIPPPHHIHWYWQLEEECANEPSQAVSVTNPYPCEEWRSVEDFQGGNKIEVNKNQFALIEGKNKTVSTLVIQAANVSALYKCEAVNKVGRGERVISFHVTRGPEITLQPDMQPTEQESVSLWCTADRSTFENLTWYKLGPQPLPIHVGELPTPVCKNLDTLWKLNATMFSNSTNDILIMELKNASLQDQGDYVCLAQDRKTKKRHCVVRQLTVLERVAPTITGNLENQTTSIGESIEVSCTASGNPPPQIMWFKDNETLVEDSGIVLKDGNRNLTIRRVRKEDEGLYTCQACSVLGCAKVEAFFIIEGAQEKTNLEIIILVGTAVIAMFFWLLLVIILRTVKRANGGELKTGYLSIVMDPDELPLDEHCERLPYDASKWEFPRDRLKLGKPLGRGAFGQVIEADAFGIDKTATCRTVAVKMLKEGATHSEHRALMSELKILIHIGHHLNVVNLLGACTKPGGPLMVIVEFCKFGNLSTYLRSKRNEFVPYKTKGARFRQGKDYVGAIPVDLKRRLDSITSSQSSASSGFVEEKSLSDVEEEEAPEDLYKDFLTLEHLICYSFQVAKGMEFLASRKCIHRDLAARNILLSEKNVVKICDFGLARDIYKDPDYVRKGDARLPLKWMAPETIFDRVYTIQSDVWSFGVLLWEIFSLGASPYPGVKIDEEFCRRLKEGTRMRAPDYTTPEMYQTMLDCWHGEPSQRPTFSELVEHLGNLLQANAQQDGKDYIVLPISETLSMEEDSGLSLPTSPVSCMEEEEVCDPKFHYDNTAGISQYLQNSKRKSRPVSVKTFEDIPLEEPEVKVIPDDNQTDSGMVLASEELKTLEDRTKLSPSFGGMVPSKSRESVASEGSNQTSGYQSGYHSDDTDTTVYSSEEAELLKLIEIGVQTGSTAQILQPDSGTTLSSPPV

SK-OV-3 [6] = assay: Inhibition of tumor sphere formation in agarose-treated human SK-OV-3 cells assessed as fold decrease in number of formed spheres by imaging analysis; assay type: functional
ACHN = assay: Cytotoxicity against human ACHN cells assessed as inhibition of cell growth incubated for 72 hrs by CCK8 assay; assay type: functional, cell-based
MIA PaCa-2 = assay: Cytotoxicity against human MIA PaCa-2 cells assessed as inhibition of cell growth incubated for 72 hrs by CCK8 assay; assay type: functional, cell-based; conditions: MIA PaCa-2, 72 h
MCF7 = assay: Cytotoxicity against human MCF7 cells assessed as inhibition of cell growth incubated for 72 hrs by CCK8 assay; assay type: functional, cell-based; conditions: MCF7, 72 h
SK-OV-3 [7] = assay: Inhibition of tumor sphere formation in agarose-treated human SK-OV-3 cells assessed as decrease in number of formed spheres at 10 nM incubated for 9 days by imaging analysis; assay type: functional, cell-based; conditions: time 9.0 day

Row | Structure (SMILES) | IC50 (A-431) [µM] | inhibition (SK-OV-3 [1]) | IC50 (HeLa) [µM] | IC50 (CAL-27) [µM] | IC50 (SK-OV-3 [2]) [µM] | IC50 (MKN-45) [µM] | IC50 (MDA-MB-231) [µM] | inhibition (SK-OV-3 [3]) | IC50 (SK-OV-3/CDDP) [µM] | IC50 (DU-145) [µM] | inhibition (SK-OV-3 [4]) | IC50 (A549) [µM] | IC50 (HCCLM3) [µM] | IC50 (A2780) [µM] | inhibition [5] | fold change (FC) (SK-OV-3 [6]) | IC50 (ACHN) [µM] | IC50 (MIA PaCa-2) [µM] | IC50 (MCF7) [µM] | inhibition (SK-OV-3 [7])
1 | CC[C@@H](C(=O)[O-])C1CC[C@H](C)C([C@@H](C)[C@H](O)[C@H](C)C(=O)[C@H](CC)C2O[C@]3(C=C[C@@H](NC(=O)CCSSc4ccccc4)[C@]4(CC[C@@](C)(C5CC[C@](O)(CC)[C@H](C)O5)O4)O3)[C@H](C)C[C@@H]2C)O1.[Na+] (stereo not given in full) | 2.95 | Active | 3.76 | 3.73 | 4.39 | 1.47 | 0.98 | Dose-Dependent Effect | 4.45 | 30.9 | Active | 14.4 | 1.33 | 0.11 | Active | 4.6 | 7.37 | 1.14 | 8.23 | –
2 | CC(=O)O[C@H]1C(=O)[C@@]2(C)[C@H]([C@H](OC(=O)c3ccccc3)[C@]3(O)C[C@H](OC(=O)[C@H](O)[C@@H](NC(=O)c4ccccc4)c4ccccc4)C(C)=C1C3(C)C)[C@]1(OC(C)=O)CO[C@@H]1C[C@@H]2O | – | – | – | – | – | – | – | – | – | – | – | – | – | – | – | – | – | – | – | Active
